Legend:
nsCFTR(G542X-opal) = assay: Immunofluorescence analysis of CFTR in nsCFTR(G542X-opal) FRT cells; assay type: cell-based, human; settings: 12 μM, 24 hours
Method: To work in a cell system containing exclusively nonsense mutations and in particular the more representative CFTR nonsense mutation, the G542X, FRT cells were engineered with a vector expressing nsCFTR (nonsense). To this aim, Site Directed Mutagenesis of the full-length CFTR cDNA cloned in the pTracer-Zeocin (pTCF-wild type) vector (Gaslini Hospital Genova, Italy) was performed (CFTR DNA available at NCBI Reference Sequence: NG_016465.4). To substitute the Glicine 542 coding codon GGA with a stop codon, was introduced a single nucleotide mutation. The first guanine of the codon, position 1624 of the cDNA, was changed in a thymine to introduce an opal nonsense mutation. We amplified the plasmid harbouring cDNA with the following primers: […]
To further evaluate the efficacy of NV914, NV848, NV930, FRT cells were transfected with the pTRACER vectors containing either the wild type CFTR or the nsCFTR(G542X-opal) cDNA and selected by Zeocin resistance. The advantage of the use of these cells is that they don't express cAMP dependent channels (as CFTR) or CFTR protein. The expression of the human CFTR wild type and nsCFTR(G542X-opal) in transfected FRT cells was evaluated by qRT-PCR and Western blot, as shown in FIG. 5.
The same FRT cells were then treated with NV914, NV848, NV930 (12 μM), and ATALUREN (12 μM) (as positive control) for 24 hours and the expression of the human CFTR wild type and nsCFTR(G542X-opal) was again evaluated by immunofluorescence analysis.
FRT cells transfected with a pTracer nsCFTR-G542X-opal vector the treated with NV848, NV914, NV930 (12 μM), and ATALUREN (12 μM) as positive control, for 24 hours and the expression of the human CFTR wild type and nsCFTR (nsCFTR-G542X-opal) was evaluated by immunofluorescence analysis.
In details, immunofluorescence analysis was used to detect the CFTR protein following the readthrough of the UGA stop codon in nsCFTR(opal) FRT cells untreated, treated with G418 as positive contro) and with PTC124 and NV848, Nv914, NV930 for 24 h. […] Nuclei (blue) were DAPI stained.

[1] = test system: pFLuc-opal (UGA stop mutation); assay: FLuc cell-based readthrough assay in HeLa FLuc-opal transfected cells; settings: 12 μM, 24 hours treatment, pFluc-opal HeLa cells, compared to untreated
Description: The results disclosed in (Pibiri I., Lentini L., Tutone M., Melfi R., Pace A., Di Leonardo A. Exploring the readthrough of nonsense mutations by non-acidic Ataluren analogues selected by ligand-based virtual screening. Eur. J. Med. Chem. 122 (2016) 429-435) have been refined with 3D-QSAR (quantitative structure-activity relationships) pharmacophore modelling. The endpoint to build QSAR models was the luciferase activity known data. These values were converted to pFLUC (−log FLUC) values. In order to find the common pharmacophore hypothesis, we divided the 24 compounds in three different classes of activity related to the FLUC values (Pharm set). We considered as active, compounds with FLUC values >4.52 (ATALUREN FLUC value), as inactives, compounds with FLUC values ≤4.00, and as moderate actives, compounds with 4.39≤FLUC values ≤4,51. Dataset was randomly split into a training set (19 compounds) for models generation, and test set (5 compounds) for the validation of developed models, as reported in Table 1.
To ascertain the effectiveness of the newly synthesized ataluren analogues in promoting the readthrough of premature termination codons was used the FLuc cell-based assay. To this aim HeLa cells were transfected transiently with the plasmids pFLuc-wild type (control) and pFLuc-opal (UGA stop mutation) (NIH Chemical Genomics Center, National Institutes of Health, Bethesda, USA). FLuc gene expression was then measured by luminescence.

HeLa cells = assay: Cytotoxic effects and impact on cell proliferation in HeLa cells; assay type: cell-based; settings: 12 μM
Method: HeLa cells were used to determine the possible cytotoxic effects of our compounds and the impact on cell proliferation. In FIG. 7 are reported the percentages of dead cells and proliferating cells after treatment with 12 μM compounds and 12 μM ATALUREN.

nsCFTR-R553X-opal = assay: Immunofluorescence analysis of CFTR in nsCFTR-R553X-opal FRT cells; assay type: cell-based, human; settings: 12 μM, 24 hours
Method: (§1) FRT cells were also engineered with a vector expressing nsCFTR (nonsense). To this aim, Site […] Directed Mutagenesis of the full-length CFTR cDNA cloned in the pTracer Zeocin (pTCF-wild type) vector (provided by Gaslini Hospital Genova, Italy) was performed, the CFTR DNA is available at NCBI Reference Sequence NG_016465.4. With the aim of introducing in the CFTR cDNA single base mutations c1654t or c1657t to convert, respectively, […] 552 (caa>taa ochre) or Arginine 553 (cga>tga opal) in nonsense codons, site-directed mutagenesis of the full-length cDNA cloned in the pTracer Zeocin (pTCF-wild type) vector (provided by Gaslini Hospital Genova, Italy) was performed (CFTR DNA available at NCBI Reference Sequence: NG_016465.4). The pTCF-wild type vector was amplified by PCR with the following primers: […]
(§2) To further evaluate the efficacy of NV848, NV914 and NV930 FRT cells were transfected with the pTracer vectors containing either the WT-CFTR (CFTRWT) or the R553X-CFTR and the Q552X-CFTR (nsCFTR-R553X-opal, nsCFTR-Q552X ochre) human cDNA and selected by Zeocin resistance. The expression of the CFTRWT and nsCFTR CFTR (nsCFTR-R553X-opal, nsCFTR-Q552X ochre) in transfected FRT cells was evaluated by qRT-PCR. The nsCFTR-Q552X ochre, nsCFTR-R553X-opal FRT transfected cells were treated with NV848, (12 μM), and ATALUREN (12 μM) as positive control, for 24 hours and the expression of the human CFTR was evaluated by immunofluorescence analysis.

nsCFTR-Q552X ochre = assay: Immunofluorescence analysis of CFTR in nsCFTR-Q552X ochre FRT cells; assay type: cell-based, human; settings: 12 μM, 24 hours
Method: as §1, §2

Structure (SMILES) | CFTR full-length expression and membrane localization (nsCFTR(G542X-opal)) | luciferase activity [1] | dead cells (HeLa cells; 24 h) [%] | dead cells (HeLa cells; 72 h) [%] | CFTR full-length expression and membrane localization (nsCFTR-R553X-opal) | CFTR full-length expression and membrane localization (nsCFTR-Q552X ochre)
O=C(Nc1noc(-c2c(F)c(F)c(F)c(F)c2F)n1)c1c(F)c(F)c(F)c(F)c1F [NV914, 2,3,4,5,6-pentafluoro-N-(5-(perfluorophenyl)-1,2,4-oxadiazol-3-yl)benzamide] | induced the CFTR full-length expression and membrane localization | significant increase of luciferase activity | 5 | 2 | induced the CFTR full-length expression and membrane localization | induced the CFTR full-length expression and membrane localization
CCOC(=O)c1noc(-c2ccccc2)n1 [NV930, ethyl 5-phenyl-1,2,4-oxadiazole-3-carboxylate] | induced the CFTR full-length expression and membrane localization | significant increase of luciferase activity | 2 | 4 | induced the CFTR full-length expression and membrane localization | induced the CFTR full-length expression and membrane localization
CC(=O)Nc1noc(C)n1 [NV848, 3-acetylamino-5-methyl-1,2,4-oxadiazole] | induced the CFTR full-length expression and membrane localization | significant increase of luciferase activity | 7 | 6 | induced the CFTR full-length expression and membrane localization | induced the CFTR full-length expression and membrane localization

Reference: US11203578B2, “Oxadiazole derivatives for the treatment of genetic diseases due to nonsense mutations” (UNIVERSITA' DEGLI STUDI DIPALERMO, priority 2017, dated 2021)
